Each structure is given as a SMILES string. Counter-ions that a name gives are not always drawn.

Holding throughout (assay): R-SAT selectivity profile of 26HCH16D
Holding throughout (format): cell-based

The target in one test is T1, D2 (Homo sapiens, UniProt P14416).
T1 construct: expressed in transfected cells; host or cells: NIH3T3, pSI vector
The method, then:
(§1) The functional receptor assay, Receptor Selection and Amplification Technology (R-SAT), was used (with minor modifications from that previously described U.S. Pat. No. 5,707,798) to screen compounds for efficacy at the 5-HT2A receptor. Briefly, NIH3T3 cells were grown in 96 well tissue culture plates to 70-80% confluence. Cells were transfected for 12-16 hours with plasmid DNAs using superfect (Qiagen Inc.) as per manufacture's protocols. R-SAT's were generally performed with 50 ng/well of receptor and 20 ng/well of Beta-galactosidase plasmid DNA. All receptor and G-protein constructs used were in the pSI mammalian expression vector (Promega Inc) as described in U.S. Pat. No. 5,707,798. The 5HT2A receptor gene was amplified by nested PCR from brain cDNA using the oligodeoxynucleotides based on the published sequence (see Saltzman et. al. Biochem. Biophys. Res. Comm. 181:1469-78 (1991)). Large-scale transfections, cells were transfected for 12-16 hours, then trypsinized and frozen in DMSO. Frozen cells were later thawed, plated at 10,000-40,000 cells per well of a 96 well plate that contained drug. With both methods, cells were then grown in a humidified atmosphere with 5% ambient CO2 for five days. Media was then removed from the plates and marker gene activity was measured by the addition of the beta-galactosidase substrate ONPG (in PBS with 5% NP-40). The resulting colorimetric reaction was measured in a spectrophotometric plate reader (Titertek Inc.) at […]. All data were analyzed using the computer program XLFit (IDBSm). Efficacy is the percent maximal repression compared to repression by a control compound (ritanserin in the case of 5HT2A). pIC50 is the negative of the log(IC50), where IC50 is the calculated concentration in Molar that produces 50% maximal repression.
(§2) R-SAT assays (as described in Example 42) were carried out with cells transfected with receptors (listed below) to determine the receptor selectivity profile for compound 26HCH16D. 5HT2A inverse agonist data (IC50 nM; % efficacy) were derived from detailed dose response curves (7 points in triplicate).

A further test concerns the target T2, alpha1c/A (Homo sapiens, UniProt P35348).
T2 construct: expressed in transfected cells; host or cells: NIH3T3, pSI vector
T2 sequence (P35348 1-466): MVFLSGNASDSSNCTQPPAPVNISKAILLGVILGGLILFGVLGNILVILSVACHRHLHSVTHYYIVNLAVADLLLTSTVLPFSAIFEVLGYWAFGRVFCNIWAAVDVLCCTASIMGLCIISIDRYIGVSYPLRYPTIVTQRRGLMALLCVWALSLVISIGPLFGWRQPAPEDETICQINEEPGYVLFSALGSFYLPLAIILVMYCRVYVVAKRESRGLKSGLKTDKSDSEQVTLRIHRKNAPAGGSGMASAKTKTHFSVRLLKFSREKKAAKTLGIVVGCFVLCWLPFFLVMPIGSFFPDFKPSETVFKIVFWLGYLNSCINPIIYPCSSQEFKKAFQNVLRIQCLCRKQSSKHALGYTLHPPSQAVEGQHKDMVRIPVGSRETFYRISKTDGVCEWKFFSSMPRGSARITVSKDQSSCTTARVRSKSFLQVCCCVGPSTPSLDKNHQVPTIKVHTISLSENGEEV
The method, then:
as §1, §2

The target of test [1] is T3, 5HT1A (Homo sapiens, UniProt P08908).
T3 construct: expressed in transfected cells; host or cells: NIH3T3, pSI vector
T3 sequence (P08908 1-422): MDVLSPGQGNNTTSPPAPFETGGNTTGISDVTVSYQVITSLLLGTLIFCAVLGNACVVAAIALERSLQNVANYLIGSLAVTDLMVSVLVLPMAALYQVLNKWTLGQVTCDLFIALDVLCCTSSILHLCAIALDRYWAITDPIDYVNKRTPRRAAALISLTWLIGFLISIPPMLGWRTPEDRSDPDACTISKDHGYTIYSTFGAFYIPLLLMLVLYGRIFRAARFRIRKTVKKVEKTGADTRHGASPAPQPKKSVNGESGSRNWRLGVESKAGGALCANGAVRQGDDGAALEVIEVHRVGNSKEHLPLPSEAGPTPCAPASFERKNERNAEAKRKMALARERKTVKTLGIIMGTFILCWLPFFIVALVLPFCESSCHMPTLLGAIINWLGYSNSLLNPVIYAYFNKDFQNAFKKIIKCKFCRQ
As to conditions: 4 doses in duplicate (3, 30, 300, 3000 nM). The protocol:
as §1, §2

The target of test [2] is T4, 5HT1A (Rattus norvegicus, UniProt P19327).
T4 construct: expressed in transfected cells; host or cells: NIH3T3, pSI vector
T4 sequence (P19327 1-422): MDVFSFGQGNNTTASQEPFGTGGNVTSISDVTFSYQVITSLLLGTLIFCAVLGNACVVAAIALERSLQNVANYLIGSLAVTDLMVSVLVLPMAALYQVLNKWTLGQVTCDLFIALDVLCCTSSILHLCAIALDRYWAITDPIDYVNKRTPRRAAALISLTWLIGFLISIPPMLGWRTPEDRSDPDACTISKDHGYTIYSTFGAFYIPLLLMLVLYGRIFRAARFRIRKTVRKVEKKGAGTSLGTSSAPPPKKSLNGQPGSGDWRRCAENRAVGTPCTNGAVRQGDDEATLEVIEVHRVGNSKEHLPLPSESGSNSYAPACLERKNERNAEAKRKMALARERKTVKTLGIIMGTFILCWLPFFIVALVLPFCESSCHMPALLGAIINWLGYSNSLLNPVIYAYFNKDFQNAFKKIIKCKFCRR
The settings on record: Antagonist; 4 doses in duplicate (3, 30, 300, 3000 nM). The protocol: as §1, §2

The target of another test is T5, 5HT2B (Homo sapiens, UniProt P41595).
T5 construct: expressed in transfected cells; host or cells: NIH3T3, pSI vector
T5 sequence (P41595 whole entry): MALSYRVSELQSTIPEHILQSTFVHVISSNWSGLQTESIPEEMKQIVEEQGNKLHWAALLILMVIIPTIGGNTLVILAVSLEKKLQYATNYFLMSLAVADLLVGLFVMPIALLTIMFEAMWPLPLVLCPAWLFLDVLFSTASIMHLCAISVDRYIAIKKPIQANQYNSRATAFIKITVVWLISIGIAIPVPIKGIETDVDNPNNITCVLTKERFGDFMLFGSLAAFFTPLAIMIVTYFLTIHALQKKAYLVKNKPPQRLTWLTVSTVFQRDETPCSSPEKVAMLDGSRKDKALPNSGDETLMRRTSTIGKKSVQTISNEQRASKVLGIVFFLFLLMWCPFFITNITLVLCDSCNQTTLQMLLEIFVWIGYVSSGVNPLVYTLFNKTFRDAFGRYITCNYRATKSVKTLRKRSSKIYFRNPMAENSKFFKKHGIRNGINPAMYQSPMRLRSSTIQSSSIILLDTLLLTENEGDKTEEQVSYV
As to conditions: Antagonist; 4 dose profiling. The protocol: as §1, §2

For the next test, the target named is T6, 5HT1E (Homo sapiens, UniProt P28566).
T6 construct: expressed in transfected cells; host or cells: NIH3T3, pSI vector
T6 sequence (P28566 whole entry): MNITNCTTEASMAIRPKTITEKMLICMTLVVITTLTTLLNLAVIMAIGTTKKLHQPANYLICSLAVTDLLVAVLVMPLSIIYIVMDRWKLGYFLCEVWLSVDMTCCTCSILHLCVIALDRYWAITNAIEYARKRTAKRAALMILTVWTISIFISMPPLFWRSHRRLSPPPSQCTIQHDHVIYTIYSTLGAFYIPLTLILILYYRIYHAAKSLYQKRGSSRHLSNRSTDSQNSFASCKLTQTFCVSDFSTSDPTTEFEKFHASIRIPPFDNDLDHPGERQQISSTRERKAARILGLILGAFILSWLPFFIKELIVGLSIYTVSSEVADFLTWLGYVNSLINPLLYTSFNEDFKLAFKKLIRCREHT
The settings on record: Agonist; 4 doses in duplicate (3, 30, 300, 3000 nM). The protocol: as §1, §2

The mark [3] stands for this setting: Agonist, 4 doses in duplicate (3, 30, 300, 3000 nM).

T1 sequence (P14416 whole entry): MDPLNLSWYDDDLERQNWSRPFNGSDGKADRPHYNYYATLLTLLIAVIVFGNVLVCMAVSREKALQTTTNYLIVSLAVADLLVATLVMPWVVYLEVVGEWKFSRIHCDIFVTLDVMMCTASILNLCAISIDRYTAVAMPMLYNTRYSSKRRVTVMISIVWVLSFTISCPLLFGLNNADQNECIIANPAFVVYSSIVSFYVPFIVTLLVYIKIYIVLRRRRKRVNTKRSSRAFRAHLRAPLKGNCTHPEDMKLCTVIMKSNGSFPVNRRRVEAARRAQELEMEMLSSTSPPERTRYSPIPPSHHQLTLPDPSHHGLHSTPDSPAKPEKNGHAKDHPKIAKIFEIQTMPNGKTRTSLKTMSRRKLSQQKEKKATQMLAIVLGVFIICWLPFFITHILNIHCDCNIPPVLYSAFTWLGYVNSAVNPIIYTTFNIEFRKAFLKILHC

On to `Cc1ccc(CN(C(=O)NCc2ccccc2)C2CCN(Cc3ccccc3)CC2)cc1` [Compound 26HCH16D, N-((4-Methylphenyl)methyl)-N-(1-(phenylmethyl)piperidin-4-yl)-N′-phenylmethylcarbamide hydrochloride], for which the Efficacy entry on D2 (setting [3]) was “nr (nr=activity less than 30% at all doses tested (3, 30, 300, 3000 nM), therefore EC50/IC50 greater than 3000 nM))”; on alpha1c/A (setting [3]), “nr (nr=activity less than 30% at all doses tested (3, 30, 300, 3000 nM), therefore EC50/IC50 greater than 3000 nM))”; on 5HT1A [1] (Agonist), “nr (nr=activity less than 30% at all doses tested (3, 30, 300, 3000 nM), therefore EC50/IC50 greater than 3000 nM))”; at 5HT1A [1] (Antagonist), “nr (nr=activity less than 30% at all doses tested (3, 30, 300, 3000 nM), therefore EC50/IC50 greater than 3000 nM))”; on 5HT1A [2], “nr (nr=activity less than 30% at all doses tested (3, 30, 300, 3000 nM), therefore EC50/IC50 greater than 3000 nM))”; at 5HT1E, “nr (nr=activity less than 30% at all doses tested (3, 30, 300, 3000 nM), therefore EC50/IC50 greater than 3000 nM))”. The “initial concentration at which at least 30% efficacy observed” value worked out at 3000 nM at D2 (Antagonist, 4 dose profiling); 3000 nM at alpha1c/A (Antagonist, 4 dose profiling); 3000 nM on 5HT2B.
